Measurements: ChEMBL document CHEMBL1909046, “DrugMatrix in vitro pharmacology data”
pIC50, pKi: −log10 of the molar value.

How the values were obtained:
[1] = target: T1, 5-hydroxytryptamine receptor 1A (Rattus norvegicus, UniProt P19327); format: cell membranes, CHO-K1, Membrane; conditions: cho-k1; note: in other assays of this panel Not Active means under 50% inhibition at 10 µM
T1 sequence (P19327 whole entry): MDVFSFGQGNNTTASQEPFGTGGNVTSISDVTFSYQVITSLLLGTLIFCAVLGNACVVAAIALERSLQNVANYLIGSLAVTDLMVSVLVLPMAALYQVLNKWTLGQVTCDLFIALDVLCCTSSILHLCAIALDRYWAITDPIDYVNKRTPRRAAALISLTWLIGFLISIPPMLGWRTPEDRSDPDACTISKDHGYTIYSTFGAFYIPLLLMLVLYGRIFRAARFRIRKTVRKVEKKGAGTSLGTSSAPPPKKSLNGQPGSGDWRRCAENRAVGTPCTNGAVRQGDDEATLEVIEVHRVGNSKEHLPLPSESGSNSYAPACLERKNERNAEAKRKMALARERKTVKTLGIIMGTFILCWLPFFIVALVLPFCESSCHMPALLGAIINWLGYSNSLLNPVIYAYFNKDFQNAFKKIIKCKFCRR

[2] = DRUGMATRIX: Calcium Channel Type L, Phenylalkylamine radioligand binding (ligand: [3H] (-)-Desmethoxyverapamil (D-888)); format: cell membranes, Rattus norvegicus, Wistar, Brain, Membrane; conditions: Not Active = under 50% inhibition at 10 µM
[3] = DRUGMATRIX: Purinergic P2X radioligand binding (ligand: [3H] alpha, beta-Methylene-ATP); format: cell membranes, Oryctolagus cuniculus, New Zealand albino, Urinary bladder, Membrane; conditions: Not Active = under 50% inhibition at 10 µM
[4] = target: 5-hydroxytryptamine receptor 6 (Homo sapiens, UniProt P50406); format: cell membranes, HeLa, Membrane; conditions: hela; note: in other assays of this panel Not Active means under 50% inhibition at 10 µM
[5] = target: T2, Polyunsaturated fatty acid lipoxygenase ALOX15 (Oryctolagus cuniculus, UniProt P12530); experiment: biochemical; format: tissue-based, Reticulocytes; conditions: reticulocytes;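 note: inhibition of 15-lipoxygenase enzyme activity measured with linoleic acid as the substrate; in other assays of this panel Not Active means under 50% inhibition at 10 µM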
T2 sequence (P12530 whole entry): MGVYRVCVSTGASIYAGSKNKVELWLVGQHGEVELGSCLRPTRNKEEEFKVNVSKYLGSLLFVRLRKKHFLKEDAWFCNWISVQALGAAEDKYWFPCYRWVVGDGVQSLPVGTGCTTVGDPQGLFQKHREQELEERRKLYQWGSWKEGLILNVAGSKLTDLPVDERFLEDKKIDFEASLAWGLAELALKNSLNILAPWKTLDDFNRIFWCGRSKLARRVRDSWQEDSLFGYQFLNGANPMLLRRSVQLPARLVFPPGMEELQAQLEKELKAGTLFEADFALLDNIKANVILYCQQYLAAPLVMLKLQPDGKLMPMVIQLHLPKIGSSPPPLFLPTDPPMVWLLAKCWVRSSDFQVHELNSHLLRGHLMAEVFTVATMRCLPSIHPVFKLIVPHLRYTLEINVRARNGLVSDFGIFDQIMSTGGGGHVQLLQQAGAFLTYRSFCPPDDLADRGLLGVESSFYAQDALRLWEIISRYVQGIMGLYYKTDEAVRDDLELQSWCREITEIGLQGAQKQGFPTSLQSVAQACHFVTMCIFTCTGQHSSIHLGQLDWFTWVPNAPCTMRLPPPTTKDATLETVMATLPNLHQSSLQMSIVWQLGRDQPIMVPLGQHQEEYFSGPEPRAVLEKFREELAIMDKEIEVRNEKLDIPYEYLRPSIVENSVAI

Glycine receptor = Glycine receptor (Rattus norvegicus, UniProt P22771+P24524+P07727+P20781); format: cell membranes, Wistar, Spinal cord, Membrane; note: in other assays of this panel Not Active means under 50% inhibition at 10 µM
[6] = DRUGMATRIX: Calcium Channel Type L, Benzothiazepine radioligand binding (ligand: [3H] Diltiazem); format: cell membranes, Rattus norvegicus, Wistar, Brain, Membrane; conditions: Not Active = under 50% inhibition at 10 µM
[7] = DRUGMATRIX: Glutamate, NMDA, Phencyclidine radioligand binding (ligand: [3H] TCP); format: cell membranes, Rattus norvegicus, Wistar, Cerebral cortex, Membrane; conditions: Not Active = under 50% inhibition at 10 µM
[8] = DRUGMATRIX: Phosphodiesterase PDE3 enzyme inhibition (substrate: [3H]cAMP + cAMP); format: tissue-based, Homo sapiens; conditions: platelet; Not Active = under 50% inhibition at 10 µM
[9] = DRUGMATRIX: Sigma2 radioligand binding (ligand: [3H] Ifenprodil); format: cell membranes, Rattus norvegicus, Wistar, Brain, Membrane; conditions: Not Active = under 50% inhibition at 10 µM
[10] = target: Tyrosine-protein kinase Lck (Homo sapiens, UniProt P06239); experiment: DRUGMATRIX: Protein Tyrosine Kinase, LCK enzyme inhibition (substrate: Poly(Glu:Tyr)); format: cell-based, Insect cells; conditions: insect cells; Not Active = under 50% inhibition at 10 µM
Substance-K receptor = target: T3, Substance-K receptor (Homo sapiens, UniProt P21452); format: cell membranes, CHO, Membrane; conditions: cho; note: in other assays of this panel Not Active means under 50% inhibition at 10 µM
T3 sequence (P21452 whole entry): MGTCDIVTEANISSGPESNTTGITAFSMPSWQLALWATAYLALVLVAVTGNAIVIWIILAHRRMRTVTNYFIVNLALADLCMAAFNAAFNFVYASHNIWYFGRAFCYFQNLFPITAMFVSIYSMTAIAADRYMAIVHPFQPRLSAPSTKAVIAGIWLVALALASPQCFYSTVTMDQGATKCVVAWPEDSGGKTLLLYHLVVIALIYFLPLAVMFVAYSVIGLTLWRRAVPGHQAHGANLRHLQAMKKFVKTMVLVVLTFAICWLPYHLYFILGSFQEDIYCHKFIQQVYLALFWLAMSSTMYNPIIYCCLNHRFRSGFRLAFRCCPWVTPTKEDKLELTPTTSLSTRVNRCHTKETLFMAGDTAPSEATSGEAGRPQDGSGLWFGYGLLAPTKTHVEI

[11] = target: Sigma non-opioid intracellular receptor 1 (Homo sapiens, UniProt Q99720); experiment: DRUGMATRIX: Sigma1 radioligand binding (ligand: [3H] Haloperidol); format: cell membranes, Jurkat, Membrane; conditions: jurkat; Not Active = under 50% inhibition at 10 µM
[12] = DRUGMATRIX: Phosphodiesterase PDE4 enzyme inhibition (substrate: [3H]cAMP + cAMP); conditions: u-937; Not Active = under 50% inhibition at 10 µM

Tyrosine-protein kinase Lck, sequence (P06239 whole entry): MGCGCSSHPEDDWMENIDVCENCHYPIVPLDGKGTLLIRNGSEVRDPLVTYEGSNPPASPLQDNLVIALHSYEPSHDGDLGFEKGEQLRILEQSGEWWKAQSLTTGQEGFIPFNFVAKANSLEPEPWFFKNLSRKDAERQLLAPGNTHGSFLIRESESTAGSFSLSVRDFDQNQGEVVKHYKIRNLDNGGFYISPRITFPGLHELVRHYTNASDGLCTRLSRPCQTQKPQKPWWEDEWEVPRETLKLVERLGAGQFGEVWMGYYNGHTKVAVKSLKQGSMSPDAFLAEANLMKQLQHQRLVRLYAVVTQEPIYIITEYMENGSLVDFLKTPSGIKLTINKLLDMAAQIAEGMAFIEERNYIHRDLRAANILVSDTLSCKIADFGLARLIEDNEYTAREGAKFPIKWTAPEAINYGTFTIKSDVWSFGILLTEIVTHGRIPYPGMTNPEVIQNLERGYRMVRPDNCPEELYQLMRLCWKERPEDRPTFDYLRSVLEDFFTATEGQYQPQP
Sigma non-opioid intracellular receptor 1, sequence (Q99720 whole entry): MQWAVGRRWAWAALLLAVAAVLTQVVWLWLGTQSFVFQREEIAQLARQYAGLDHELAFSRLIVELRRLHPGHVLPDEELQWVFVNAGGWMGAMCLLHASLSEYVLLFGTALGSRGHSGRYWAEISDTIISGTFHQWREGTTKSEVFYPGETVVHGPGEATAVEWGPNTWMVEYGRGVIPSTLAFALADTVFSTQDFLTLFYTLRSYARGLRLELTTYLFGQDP
5-hydroxytryptamine receptor 6, sequence (P50406 whole entry): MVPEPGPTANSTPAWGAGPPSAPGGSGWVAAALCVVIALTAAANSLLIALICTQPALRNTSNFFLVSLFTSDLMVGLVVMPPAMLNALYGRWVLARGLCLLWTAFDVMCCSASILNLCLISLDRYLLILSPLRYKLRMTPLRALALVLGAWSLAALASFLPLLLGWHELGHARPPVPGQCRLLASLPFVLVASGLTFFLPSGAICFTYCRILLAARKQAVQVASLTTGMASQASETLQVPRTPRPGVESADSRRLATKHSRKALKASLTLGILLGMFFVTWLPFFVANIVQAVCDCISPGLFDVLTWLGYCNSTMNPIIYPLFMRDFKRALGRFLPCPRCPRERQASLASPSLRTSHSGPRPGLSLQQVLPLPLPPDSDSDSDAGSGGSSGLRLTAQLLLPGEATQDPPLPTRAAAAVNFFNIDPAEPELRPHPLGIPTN

Compound: IVERMECTIN
- IC50 [1]: Not Active
- Ki [1]: Not Active
- IC50 [2]: Not Active
- Ki [2]: Not Active
- IC50 [3]: Not Active
- Ki [3]: Not Active
- IC50 [4]: Not Active
- Ki [4]: Not Active
- IC50 [5]: Not Active
- Ki [5]: Not Active
- pIC50 (Glycine receptor; read-out: IC50): 6.43
- pKi (Glycine receptor; read-out: Ki): 6.67
- IC50 [6]: Not Active
- Ki [6]: Not Active
- IC50 [7]: Not Active
- Ki [7]: Not Active
- IC50 [8]: Not Active
- Ki [8]: Not Active
- IC50 [9]: Not Active
- Ki [9]: Not Active
- IC50 [10]: Not Active
- Ki [10]: Not Active
- IC50 (Substance-K receptor): Not Active
- Ki (Substance-K receptor): Not Active
- IC50 [11]: Not Active
- Ki [11]: Not Active
- IC50 [12]: Not Active
- Ki [12]: Not Active

Compound: CC1(C)[C@H]2CC[C@]1(C)C(=O)C2 [(-)-CAMPHOR]
- IC50 [1]: Not Active
- IC50 [2]: Not Active
- Ki [2]: Not Active
- IC50 [3]: Not Active
- Ki [3]: Not Active
- IC50 [4]: Not Active
- IC50 [5]: Not Active
- IC50 (Glycine receptor): Not Active
- IC50 [6]: Not Active
- Ki [6]: Not Active
- IC50 [7]: Not Active
- Ki [7]: Not Active
- IC50 [8]: Not Active
- Ki [8]: Not Active
- IC50 [9]: Not Active
- Ki [9]: Not Active
- IC50 [10]: Not Active
- IC50 (Substance-K receptor): Not Active
- IC50 [11]: Not Active
- IC50 [12]: Not Active
- Ki [12]: Not Active

Compound: Nc1ccc(S(N)(=O)=O)cc1 [SULFANILAMIDE]
- IC50 [1]: Not Active
- IC50 [2]: Not Active
- Ki [2]: Not Active
- IC50 [3]: Not Active
- Ki [3]: Not Active
- IC50 [4]: Not Active
- IC50 [5]: Not Active
- IC50 (Glycine receptor): Not Active
- IC50 [6]: Not Active
- Ki [6]: Not Active
- IC50 [7]: Not Active
- Ki [7]: Not Active
- IC50 [8]: Not Active
- Ki [8]: Not Active
- IC50 [9]: Not Active
- Ki [9]: Not Active
- IC50 [10]: Not Active
- IC50 (Substance-K receptor): Not Active
- IC50 [11]: Not Active
- IC50 [12]: Not Active
- Ki [12]: Not Active

Compound: c1ccc2[nH]c(-c3cscn3)nc2c1 [THIABENDAZOLE]
- IC50 [1]: Not Active
- IC50 [2]: Not Active
- Ki [2]: Not Active
- IC50 [3]: Not Active
- Ki [3]: Not Active
- IC50 [4]: Not Active
- IC50 [5]: Not Active
- IC50 (Glycine receptor): Not Active
- IC50 [6]: Not Active
- Ki [6]: Not Active
- IC50 [7]: Not Active
- Ki [7]: Not Active
- IC50 [8]: Not Active
- Ki [8]: Not Active
- IC50 [9]: Not Active
- Ki [9]: Not Active
- IC50 [10]: Not Active
- IC50 (Substance-K receptor): Not Active
- IC50 [11]: Not Active
- IC50 [12]: Not Active
- Ki [12]: Not Active
